The record followed here is ChEMBL document CHEMBL6074675, “4-Substituted-2-Thiazole Amides as Viral Replication Inhibitors of Alphaviruses” (J Med Chem, 2024).

Structures are written as SMILES.

The assay relates to Chikungunya virus. Nature of the assay: Antiviral activity against Chikungunya virus S27 infected in golden hamster BHK-21 cells assessed as inhibition of virus-induced cytopathic effect measured after 4 days by microscopic analysis. It counts as functional, organism-based. The conditions noted are these: S27, BHK-21, 96 h. A general note: Cytopathic effects are the visible damage that an infection or toxin causes in cultured cells.

By EC50 is commonly meant the concentration giving half of the maximal effect. On to `O=C(CCN1CCOCC1)c1c(CO)c2ccccc2[nH]c1=O`, for which the EC50 worked out at 2200 nM.
